Measured values reported in US20140018347A1, “BENZOXAZEPINES AS INHIBITORS OF mTOR AND METHODS OF THEIR USE AND MANUFACTURE” (Exelixis, Inc., priority 2010, published 2014).

Assays:
mTORC1 = mTORC1 (Homo sapiens, UniProt P42345); assay: mTOR/GbL/Raptor (mTORC1) ELISA Assay; type: biochemical; conditions: phosphorylation of 4E-BP1; 0.2 nM mTORC1, 10 μM ATP
How it was run: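 Kinase reaction: 0.2 nM mTORC1, 10 μM ATP, 50 nM NHis-4E-BP1 in Hepes pH 7.2 with 10 mM MnCl2, 120 min at ambient temperature. Phospho-4E-BP1 was captured on Ni-chelate plates and detected by anti-phospho-4E-BP1 rabbit IgG, HRP secondary and chemiluminescence.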

PI3Kalpha = PI3Kalpha (Homo sapiens, UniProt P42336); assay: PI3K Biochemical Assays (PI3K-alpha assay); conditions: ATP consumption, luciferase-luciferin; 1 μM ATP, 10 μM PIP2
How it was run: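 Recombinant PI3Kα 3 nM, ATP 1 μM and PIP2 10 μM in Tris pH 7.5 with 10 mM MgCl2, ~2 h at ambient temperature. ATP depletion (held to 40-60%) was read by Kinase-Glo luminescence for IC50. Other isoforms: β 10 nM, δ 4 nM; γ 40 nM, 1 h, 5 mM MgCl2.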

Chain of PI3Kalpha (P42336 whole entry, canonical isoform): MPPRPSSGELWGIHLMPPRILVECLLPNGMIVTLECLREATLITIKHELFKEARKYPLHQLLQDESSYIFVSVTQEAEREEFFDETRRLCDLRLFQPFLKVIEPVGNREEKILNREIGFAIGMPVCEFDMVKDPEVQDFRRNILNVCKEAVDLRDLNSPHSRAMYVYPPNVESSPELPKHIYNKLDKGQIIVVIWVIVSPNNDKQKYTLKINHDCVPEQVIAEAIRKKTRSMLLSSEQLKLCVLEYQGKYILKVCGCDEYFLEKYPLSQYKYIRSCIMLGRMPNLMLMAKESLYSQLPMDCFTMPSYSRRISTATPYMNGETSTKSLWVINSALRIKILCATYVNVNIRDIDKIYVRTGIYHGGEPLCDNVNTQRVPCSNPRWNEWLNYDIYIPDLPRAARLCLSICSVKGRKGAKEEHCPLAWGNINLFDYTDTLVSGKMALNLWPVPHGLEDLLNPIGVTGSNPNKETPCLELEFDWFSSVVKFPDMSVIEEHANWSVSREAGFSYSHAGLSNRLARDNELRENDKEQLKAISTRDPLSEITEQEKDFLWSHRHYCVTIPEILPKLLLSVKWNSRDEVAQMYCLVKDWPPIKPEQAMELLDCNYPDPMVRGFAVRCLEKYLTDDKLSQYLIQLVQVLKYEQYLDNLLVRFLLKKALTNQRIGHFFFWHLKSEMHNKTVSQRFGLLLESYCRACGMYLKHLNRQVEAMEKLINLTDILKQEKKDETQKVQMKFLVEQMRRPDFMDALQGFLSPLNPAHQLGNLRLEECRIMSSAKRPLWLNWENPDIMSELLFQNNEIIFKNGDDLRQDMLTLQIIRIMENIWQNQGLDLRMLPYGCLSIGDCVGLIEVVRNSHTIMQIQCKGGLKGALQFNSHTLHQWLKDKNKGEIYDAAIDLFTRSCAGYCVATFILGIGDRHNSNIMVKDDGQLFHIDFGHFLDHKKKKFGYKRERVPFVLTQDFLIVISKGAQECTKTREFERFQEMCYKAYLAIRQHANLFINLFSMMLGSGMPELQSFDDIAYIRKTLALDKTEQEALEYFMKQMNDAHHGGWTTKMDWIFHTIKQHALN
Chain of PI3Kalpha (P27986 whole entry partner, canonical isoform): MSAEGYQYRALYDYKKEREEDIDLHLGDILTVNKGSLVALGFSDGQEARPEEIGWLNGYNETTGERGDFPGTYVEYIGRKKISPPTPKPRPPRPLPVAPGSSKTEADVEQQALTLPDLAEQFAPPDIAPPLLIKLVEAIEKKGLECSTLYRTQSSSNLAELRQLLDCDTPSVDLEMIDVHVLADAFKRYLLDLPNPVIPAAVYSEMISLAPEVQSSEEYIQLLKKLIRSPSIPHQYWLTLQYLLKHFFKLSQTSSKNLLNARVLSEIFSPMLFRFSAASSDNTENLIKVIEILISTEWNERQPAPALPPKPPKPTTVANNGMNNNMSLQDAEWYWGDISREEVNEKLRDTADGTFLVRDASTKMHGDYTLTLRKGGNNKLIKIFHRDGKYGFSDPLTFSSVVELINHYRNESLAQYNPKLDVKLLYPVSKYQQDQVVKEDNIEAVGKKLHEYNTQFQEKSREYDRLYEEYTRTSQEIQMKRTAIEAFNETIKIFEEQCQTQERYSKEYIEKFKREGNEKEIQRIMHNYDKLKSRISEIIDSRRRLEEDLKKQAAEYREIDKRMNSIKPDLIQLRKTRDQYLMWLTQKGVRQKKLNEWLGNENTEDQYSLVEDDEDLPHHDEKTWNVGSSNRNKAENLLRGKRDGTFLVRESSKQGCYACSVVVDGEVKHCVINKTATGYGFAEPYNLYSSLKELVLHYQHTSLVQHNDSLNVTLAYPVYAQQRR

Q: For `Cc1nc(CO)nc(N2CCOc3ccc(-c4cnc5sc(N)nc5c4)cc3C2)c1C(C)C` [Compound 3, {4-[7-(2-amino[1,3]thiazolo[5,4-b]pyridin-6-yl)-2,3-dihydro-1,4-benzoxazepin-4(5H)-yl]-6-methyl-5-(1-methylethyl)pyrimidin-2-yl}methanol], which IC50 (mTORC1) is on record?
A: ≤ 100 nM

Q: And the IC50 (PI3Kalpha)?
A: ≤ 100 nM

Q: Which results are given for `CC(C)c1c(Br)nc(N)nc1N1CCOc2ccc(-c3cnc4sc(N)nc4c3)cc2C1` [Compound 19, 6-{4-[2-amino-6-bromo-5-(1-methylethyl)pyrimidin-4-yl]-2,3,4,5-tetrahydro-1,4-benzoxazepin-7-yl}[1,3]thiazolo[5,4-b]pyridin-2-amine]?
A: IC50 (mTORC1): ≤ 100 nM; IC50 (PI3Kalpha): ≤ 100 nM

Q: `Cc1nc(CN(C)C)nc(N2CCOc3ccc(-c4cnc5sc(N)nc5c4)cc3C2)c1Cl` [Compound 65, 6-(4-{5-chloro-2-[(dimethylamino)methyl]-6 methylpyrimidin-4-yl}-2,3,4,5-tetrahydro-1,4-benzoxazepin-7-yl)[1,3]thiazolo[5,4-b]pyridin-2-amine] was tested. Which IC50 (mTORC1) did it give?
A: 100 to 500 nM

Q: What about the IC50 (PI3Kalpha) of the same molecule?
A: ≤ 100 nM

Q: With `C=CCc1c(Cl)nc(N)nc1N1CCOc2ccc(-c3cnc4sc(N)nc4c3)cc2C1` [Compound 76, 6-[4-(2-amino-6-chloro-5-prop-2-en-1-ylpyrimidin-4-yl)-2,3,4,5-tetrahydro-1,4-benzoxazepin-7-yl][1,3]thiazolo[5,4-b]pyridin-2-amine] as the molecule, how does the IC50 (mTORC1) read?
A: ≤ 100 nM

Q: And the IC50 (PI3Kalpha)?
A: ≤ 100 nM

Q: Which results are given for `Nc1cc(N2CCOc3ccc(-c4cnc5sc(N)nc5c4)cc3C2)nc(N)n1` [Compound 80, 6-[7-(2-amino[1,3]thiazolo[5,4-b]pyridin-6-yl)-2,3-dihydro-1,4-benzoxazepin-4(5H)-yl]pyrimidine-2,4-diamine]?
A: IC50 (mTORC1): 100 to 500 nM; IC50 (PI3Kalpha): ≤ 100 nM

Q: `CC(C)c1c(Cl)nc(N)nc1N1CCOc2ccc(-c3cnc4sc(N)nc4c3)cc2C1` [Compound 8, 6-{4-[2-amino-6-chloro-5-(1-methylethyl)pyrimidin-4-yl]-2,3,4,5-tetrahydro-1,4-benzoxazepin-7-yl}[1,3]thiazolo[5,4-b]pyridin-2-amine] was tested. Which IC50 (mTORC1) did it give?
A: ≤ 100 nM

Q: And the IC50 (PI3Kalpha)?
A: ≤ 100 nM

Q: What does the source list for `Nc1ncc(C(F)(F)F)c(N2CCOc3ccc(-c4cnc5sc(N)nc5c4)cc3C2)n1` [Compound 78, 6-{4-[2-amino-5-(trifluoromethyl)pyrimidin-4-yl]-2,3,4,5-tetrahydro-1,4-benzoxazepin-7-yl}[1,3]thiazolo[5,4-b]pyridin-2-amine]?
A: IC50 (mTORC1): ≤ 100 nM; IC50 (PI3Kalpha): ≤ 100 nM

Q: Which results are given for `CC1=CC(C)(C)Cc2c1nc(N)nc2N1CCOc2ccc(-c3cnc4sc(N)nc4c3)cc2C1` [Compound 97, 4-[7-(2-amino[1,3]thiazolo[5,4-b]pyridin-6-yl)-2,3-dihydro-1,4-benzoxazepin-4(5H)-yl]-6,6,8-trimethyl-5,6-dihydroquinazolin-2-amine]?
A: IC50 (mTORC1): ≤ 100 nM; IC50 (PI3Kalpha): ≤ 100 nM

Q: Which results are given for `Cc1nc(N)nc(N2CCOc3c(Cl)cc(-c4cnc5sc(N)nc5c4)cc3C2)c1C(C)C` [Compound 102, 6-{4-[2-amino-6-methyl-5-(1-methylethyl)pyrimidin-4-yl]-9-chloro-2,3,4,5-tetrahydro-1,4-benzoxazepin-7-yl}[1,3]thiazolo[5,4-b]pyridin-2-amine]?
A: IC50 (mTORC1): ≤ 100 nM; IC50 (PI3Kalpha): ≤ 100 nM

Q: What does the source list for `Cc1nc(CN(C)C)nc(N2CCOc3ccc(-c4cnc5sc(N)nc5c4)cc3C2)c1CCCF` [Compound 38, 6-(4-{2-[(dimethylamino)methyl]-5-(3-fluoropropyl)-6-methylpyrimidin-4-yl}-2,3,4,5-telrahydro-1,4-benzoxazepin-7-yl)[1,3]thiazolo[5,4-b]pyridin-2-amine]?
A: IC50 (mTORC1): ≤ 100 nM; IC50 (PI3Kalpha): ≤ 100 nM

Q: With `COc1nc(N)nc(N2CCOc3ccc(-c4cnc5sc(N)nc5c4)cc3C2)c1C` [Compound 67] as the molecule, how does the IC50 (mTORC1) read?
A: 100 to 500 nM

Q: And the IC50 (PI3Kalpha)?
A: ≤ 100 nM

Q: `CCCc1cnc(N)nc1N1CCOc2ccc(-c3cnc4sc(N)nc4c3)cc2C1` [Compound 33, 6-[4-(2-amino-5-propylpyrimidin-4-yl)-2,3,4,5-tetrahydro-1,4-benzoxazepin-7-yl][1,3]thiazolo[5,4-b]pyridin-2-amine] was tested. Which IC50 (mTORC1) did it give?
A: ≤ 100 nM

Q: What about the IC50 (PI3Kalpha) of the same molecule?
A: ≤ 100 nM

Q: `Cc1nc(CN(C)C)nc(N2CCOc3ccc(-c4cnc5sc(N)nc5c4)cc3C2)c1C` [Compound 2, 6-(4-{2-[(dimethylamino)methyl]-5,6-dimethylpyrimidin-4-yl}-2,3,4,5-tetrahydro-1,4-benzoxazepin-7-yl)[1,3]thiazolo[5,4-b]pyridin-2-amine] was tested. Which IC50 (mTORC1) did it give?
A: 500 to 2500 nM

Q: What about the IC50 (PI3Kalpha) of the same molecule?
A: ≤ 100 nM

Q: With `CC(C)c1cnc(N)nc1N1CCOc2ccc(-c3cnc4sc(N)nc4c3)cc2C1` [Compound 95, 6-{4-[2-amino-5-(1-methylethyl)pyrimidin-4-yl]-2,3,4,5-tetrahydro-1,4-benzoxazepin-7-yl}[1,3]thiazolo[5,4-b]pyridin-2-amine] as the molecule, how does the IC50 (mTORC1) read?
A: ≤ 100 nM

Q: And the IC50 (PI3Kalpha)?
A: ≤ 100 nM

Q: Which results are given for `C=Cc1cnc(N)nc1N1CCOc2ccc(-c3cnc4sc(N)nc4c3)cc2C1` [Compound 34, 6-[4-(2-amino-5-ethenylpyrimidin-4-yl)-2,3,4,5-tetrahydro-1,4-benzoxazepin-7-yl][1,3]thiazolo[5,4-b]pyridin-2-amine]?
A: IC50 (mTORC1): ≤ 100 nM; IC50 (PI3Kalpha): ≤ 100 nM

Q: `Cc1nc(CNS(C)(=O)=O)nc(N2CCOc3ccc(-c4cnc5sc(N)nc5c4)cc3C2)c1C(C)C` [Compound 21, N-({4-[7-(2-amino[1,3]thiazolo[5,4-b]pyridin-6-yl)-2,3-dihydro-1,4-benzoxazepin-4(5H)-yl]-6-methyl-5-(1-methylethyl)pyrimidin-2-yl}methyl)methanesulfonamide] was tested. Which IC50 (mTORC1) did it give?
A: ≤ 100 nM

Q: And the IC50 (PI3Kalpha)?
A: ≤ 100 nM

Q: What does the source list for `Cc1cc(N2CCOc3ccc(-c4cnc5sc(N)nc5c4)cc3C2)nc(N)n1` [Compound 46, 6-[4-(2-amino-6-methylpyrimidin-4-yl)-2,3,4,5-tetrahydro-1,4-benzoxazepin-7-yl][1,3]thiazolo[5,4-b]pyridin-2-amine]?
A: IC50 (mTORC1): 500 to 2500 nM; IC50 (PI3Kalpha): 100 to 500 nM

Q: With `CNc1nc(N)nc(N2CCOc3ccc(-c4cnc5sc(N)nc5c4)cc3C2)c1C` [Compound 63, 6-[7-(2-amino[1,3]thiazolo[5,4-b]pyridin-6-yl)-2,3-dihydro-1,4-benzoxazepin-4(5H)-yl]-N~4~,5-dimethylpyrimidine-2,4-diamine] as the molecule, how does the IC50 (mTORC1) read?
A: 100 to 500 nM

Q: And the IC50 (PI3Kalpha)?
A: ≤ 100 nM

Q: `N#Cc1cnc(N2CCOc3ccc(-c4cnc5sc(N)nc5c4)cc3C2)nc1N` [Compound 49, 4-amino-2-[7-(2-amino[1,3]thiazolo[5,4-b]pyridin-6-yl)-2,3-dihydro-1,4-benzoxazepin-4(5H)-yl]pyrimidine-5-carbonitrile] was tested. Which IC50 (mTORC1) did it give?
A: 100 to 500 nM

Q: And the IC50 (PI3Kalpha)?
A: ≤ 100 nM

Q: Which results are given for `Cc1c(Cl)nc(N)nc1N1CCOc2ccc(-c3cnc4sc(N)nc4c3)cc2C1` [Compound 31, 6-[4-(2-amino-6-chloro-5-methylpyrimidin-4-yl)-2,3,4,5-tetrahydro-1,4-benzoxazepin-7-yl][1,3]thiazolo[5,4-b]pyridin-2-amine]?
A: IC50 (mTORC1): 100 to 500 nM; IC50 (PI3Kalpha): ≤ 100 nM

Q: How did the IC50 (mTORC1) turn out when `Cc1nc(CN(C)C)nc(N2CCOc3ccc(-c4cnc5sc(N)nc5c4)cc3C2)c1CC1CC1` [Compound 27, 6-(4-{5-(cyclopropylmethyl)-2-[(dimethylamino)methyl]-6-methylpyrimidin-4-yl}-2,3,4,5-tetrahydro-1,4-benzoxazepin-7-yl)[1,3]thiazolo[5,4-b]pyridin-2-amine] was run?
A: ≤ 100 nM

Q: What about the IC50 (PI3Kalpha) of the same molecule?
A: ≤ 100 nM

Q: Which results are given for `C=Cc1c(Cl)nc(N)nc1N1CCOc2ccc(-c3cnc4sc(N)nc4c3)cc2C1` [Compound 11, 6-[4-(2-amino-6-chloro-5-ethenylpyrimidin-4-yl)-2,3,4,5-tetrahydro-1,4-benzoxazepin-7-yl][1,3]thiazolo[5,4-b]pyridin-2-amine]?
A: IC50 (mTORC1): ≤ 100 nM; IC50 (PI3Kalpha): ≤ 100 nM

Q: How did the IC50 (mTORC1) turn out when `COCCc1c(C)nc(N)nc1N1CCOc2ccc(-c3cnc4sc(N)nc4c3)cc2C1` [Compound 12, 6-(4-{2-amino-6-methyl-5-[2-(methyloxy)ethyl]pyrimidin-4-yl)-2,3,4,5-tetrahydro-1,4-benzoxazepin-7-yl)[1,3]thiazolo[5,4-b]pyridin-2-amine] was run?
A: ≤ 100 nM

Q: And the IC50 (PI3Kalpha)?
A: ≤ 100 nM

Q: Which IC50 (mTORC1) does the source give for `Cc1nc(CN(C)C)nc(N2CCOc3ccc(-c4cnc5sc(N)nc5c4)cc3C2)c1CC(=O)O` [Compound 18, {4-[7-(2-amino[1,3]thiazolo[5,4-b]pyridin-6-yl)-2,3-dihydro-1,4-benzoxazepin-4(5H)-yl]-2-[(dimethylamino)methyl]-6-methylpyrimidin-5-yl}acetic acid] here?
A: 500 to 2500 nM

Q: And the IC50 (PI3Kalpha)?
A: 100 to 500 nM
